Laboratory results reported in patent publication US10173991B2, “Sulfone amide linked benzothiazole inhibitors of endothelial lipase” (BRISTOL-MYERS SQUIBB COMPANY, priority 2014, dated 2019).

The compounds below were run against Endothelial lipase (EL) (Homo sapiens (Human), UniProt Q9Y5X9) (assay: Endothelial lipase (EL) enzymatic assay with fluorescent substrate A10070 in DMPG vesicles). Conditions: not given.
Assay type: biochemical
Summary of the method: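 EL from conditioned medium of HT-1080 cells engineered to overexpress endogenous EL; HL partially purified from conditioned medium of HL-overexpressing COS cells. Enzyme preincubated with compound 30 min at 37° C in 50 mM HEPES pH 8.0, 50 mM NaCl, 1 mM CaCl2; DMPG vesicles carrying FRET substrate (0.11 mole fraction) then added.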

Sequence of Endothelial lipase (EL) (Q9Y5X9 21-500): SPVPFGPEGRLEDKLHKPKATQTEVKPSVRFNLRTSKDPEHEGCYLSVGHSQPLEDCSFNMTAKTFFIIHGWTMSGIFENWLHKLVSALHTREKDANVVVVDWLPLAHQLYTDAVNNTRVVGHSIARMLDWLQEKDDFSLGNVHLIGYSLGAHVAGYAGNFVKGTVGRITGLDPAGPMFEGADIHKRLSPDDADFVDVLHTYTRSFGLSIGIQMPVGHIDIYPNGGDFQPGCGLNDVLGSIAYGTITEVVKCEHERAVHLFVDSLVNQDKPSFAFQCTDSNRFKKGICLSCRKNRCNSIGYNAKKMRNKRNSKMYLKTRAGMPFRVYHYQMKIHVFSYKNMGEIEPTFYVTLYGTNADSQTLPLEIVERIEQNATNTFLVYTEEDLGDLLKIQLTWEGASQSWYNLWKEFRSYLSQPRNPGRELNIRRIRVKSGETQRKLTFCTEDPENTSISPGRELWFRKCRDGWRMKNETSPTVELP

SMILES | IC50 [nM]
CC(C)n1cc(-c2ccc3nc(C(C(=O)NCC(=O)NC4CC4)S(=O)(=O)Cc4cccc(C#N)c4)sc3c2)ccc1=O (stereo not shown) [Example 230, 2-[(3-cyanophenyl)methanesulfonyl]-N-[(cyclopropyl-carbamoyl)methyl]-2-{6-[6-oxo-1-(propan-2-yl)-1,6-dihydropyridin-3-yl]-1,3-benzothiazol-2-yl}acetamide] | 46
CC(C)S(=O)(=O)C(C(=O)NCC(=O)NC1CC1)c1nc2cc(-c3cccnc3F)c(F)cc2s1 (stereo not shown) [Example 272, N-[(cyclopropyl-carbamoyl)methyl]-2-[6-fluoro-5-(2-fluoropyridin-3-yl)-1,3-benzothiazol-2-yl]-2-(propane-2-sulfonyl)acetamide] | 29
Cc1cc2nc(C(C(=O)NCC(=O)NC3CC3)S(=O)(=O)C(C)C)sc2cc1-c1ccc2cnn(C)c2c1 (stereo not shown) [Example 260, N-[(cyclopropyl-carbamoyl)methyl]-2-[5-methyl-6-(1-methyl-1H-indazol-6-yl)-1,3-benzothiazol-2-yl]-2-(propane-2-sulfonyl)acetamide] | 7
COC(=O)N(C)c1ccc(-c2ccc3nc(C(C(=O)NCC(=O)NC4CC4)S(=O)(=O)CCC(F)(F)F)sc3c2)cc1 (stereo not shown) [Example 24, methyl N-{4-[2-({[(cyclopropyl-carbamoyl)methyl]carbamoyl} (3,3,3-trifluoropropane-sulfonyl)methyl)-1,3-benzothiazol-6-yl]phenyl}-N-methylcarbamate] | 6
CS(=O)(=O)C(C(=O)NCC(=O)NC1CC1)c1nc2cc(F)c(-c3cnc(-c4ccccc4)nc3)cc2s1 (stereo not shown) [Example 202, N-[(cyclopropyl-carbamoyl)methyl]-2-[5-fluoro-6-(2-phenylpyrimidin-5-yl)-1,3-benzothiazol-2-yl]-2-methanesulfonyl-acetamide] | 5
Cn1ccc2cc(-c3cc4sc(C(C(=O)NCC(=O)NC5CC5)S(C)(=O)=O)nc4cc3F)ccc2c1=O (stereo not shown) [Example 193, N-[(cyclopropyl-carbamoyl)methyl]-2-[5-fluoro-6-(2-methyl-1-oxo-1,2-dihydro-isoquinolin-6-yl)-1,3-benzothiazol-2-yl]-2-methanesulfonyl-acetamide] | 5
COCCNC(=O)c1ccc(-c2cc(F)c3nc(C(C(=O)NCC(=O)NC4CC4)S(=O)(=O)CCOC)sc3c2)cc1 (stereo not shown) [Example 218, 4-[2-({[(cyclopropyl-carbamoyl)methyl]carbamoyl}(2-methoxyethane-sulfonyl)methyl)-4-fluoro-1,3-benzothiazol-6-yl]-N-(2-methoxyethyl) benzamide] | 28
CC(C)S(=O)(=O)C(C(=O)NCC(=O)NC1CC1)c1nc2cc(F)c(-c3ccc(C(=O)N4CCC4)cc3)cc2s1 (stereo not shown) [Example 244, 2-{6-[4-(azetidine-1-carbonyl)phenyl]-5-fluoro-1,3-benzothiazol-2-yl}-N-[(cyclopropyl-carbamoyl)methyl]-2-(propane-2-sulfonyl)acetamide] | 7
Cc1cc(-c2cc3nc(C(C(=O)NCC(=O)NC4CC4)S(=O)(=O)C(C)C)sc3cc2F)ccn1 (stereo not shown) [Example 264, N-[(cyclopropyl-carbamoyl)methyl]-2-[6-fluoro-5-(2-methylpyridin-4-yl)-1,3-benzothiazol-2-yl]-2-(propane-2-sulfonyl)acetamide] | 7
Cc1cc2nc(C(C(=O)NCC(=O)NC3CC3)S(=O)(=O)C(C)C)sc2cc1-c1ccc(-c2ccccn2)cc1 (stereo not shown) [Example 261, N-[(cyclopropyl-carbamoyl)methyl]-2-{5-methyl-6-[4-(pyridin-2-yl)phenyl]-1,3-benzothiazol-2-yl}-2-(propane-2-sulfonyl) acetamide] | 4
COCCS(=O)(=O)C(C(=O)NCC(=O)NC1CC1)c1nc2ccc(-c3ccc(N(C)C(C)=O)cc3)cc2s1 (stereo not shown) [Example 27, N-[(cyclopropyl-carbamoyl)methyl]-2-(2-methoxy-ethanesulfonyl)-2-{6-[4-(N-methylacetamido)phenyl]-1,3-benzothiazol-2-yl}acetamide] | 58
COC(=O)Nc1ccc(-c2cc3nc(C(C(=O)NCC(=O)NC4CC4)S(C)(=O)=O)sc3cc2F)cc1F (stereo not shown) [Example 122, methyl N-{4-[2-({[(cyclopropyl-carbamoyl)methyl]carbamoyl} (methanesulfonyl)methyl)-6-fluoro-1,3-benzothiazol-5-yl]-2-fluorophenyl} carbamate] | 7

Other lines, results leading:

IC50 [nM] | SMILES
10 | CC(=O)NCc1ccc(-c2cc3sc(C(C(=O)NCC(=O)NC4CC4)S(=O)(=O)c4ccc(F)c(F)c4)nc3cc2F)cc1 (stereo not shown) [Example 442, N-[(cyclopropyl-carbamoyl)methyl]-2-(3,4-difluorobenzene-sulfonyl)-2-{6-[4-(acetamidomethyl)phenyl]-5-fluoro-1,3-benzothiazol-2-yl}acetamide]
4 | COCCS(=O)(=O)C(C(=O)NCC(=O)NC1CC1)c1nc2cc(-c3cccc(C(=O)N4CCOCC4)c3)ccc2s1 (stereo not shown) [Example 395, N-[(cyclopropyl-carbamoyl)methyl]-2-(2-methoxyethane-sulfonyl)-2-{5-[3-(morpholine-4-arbonyl)phenyl}-1,3-benzothiazol-2-yl}acetamide]
19 | COCCS(=O)(=O)C(C(=O)NCC(=O)NC1CC1)c1nc2cc(-c3cccc(C(=O)N4CCN(C)CC4)c3)ccc2s1 (stereo not shown) [Example 397, N-[(cyclopropyl-carbamoyl)methyl]-2-(2-methoxyethane-sulfonyl)-2-{5-[3-(4-methylpiperazine-1-carbonyl)phenyl]-1,3-benzothiazol-2-yl}acetamide]
31 | COCCS(=O)(=O)C(C(=O)NCC(=O)NC1CC1)c1nc2ccc(-c3cnnc(C)c3)cc2s1 (stereo not shown) [Example 292, N-[(cyclopropyl-carbamoyl)methyl]-2-(2-methoxyethane-sulfonyl)-2-[6-(6-methylpyridazin-4-yl)-1,3-benzothiazol-2-yl]acetamide]
16 | O=C(CNC(=O)C(c1nc2ccc(-c3ccccc3)cc2s1)S(=O)(=O)c1ccc(F)cc1)NC1CC1 (stereo not shown) [Example 449, N-[(cyclopropyl-carbamoyl)methyl]-2-(4-fluorobenzene-sulfonyl)-2-(6-phenyl-1,3-benzothiazol-2-yl)acetamide]
27 | O=C(CNC(=O)C(c1nc2ccc(-c3ccnc(O)c3)cc2s1)S(=O)(=O)c1ccc(F)cc1)NC1CC1 (stereo not shown) [Example 599, N-[(cyclopropyl-carbamoyl)methyl]-2-(4-fluorobenzene-sulfonyl)-2-[6-(2-hydroxypyridin-4-yl)-1,3-benzothiazol-2-yl]acetamide]
313 | COCCS(=O)(=O)C(C(=O)NCC(=O)NC1CC1)c1nc2ccc(-c3ccnn3C)cc2s1 (stereo not shown) [Example 313, N-[(cyclopropyl-carbamoyl)methyl]-2-(2-methoxyethane-sulfonyl)-2-[6-(1-methyl-1H-pyrazol-5-yl)-1,3-benzothiazol-2-yl]acetamide]
4 | CS(=O)(=O)C(C(=O)NCC(=O)NC1CC1)c1nc2cc(F)c(-c3ccc(C(N)=O)cc3)cc2s1 (stereo not shown) [Example 331, 4-[2-({[(cyclopropyl-carbamoyl)methyl]carbamoyl} (methanesulfonyl)methyl)-5-fluoro-1,3-benzothiazol-6-yl]benzamide]
2 | COC(=O)Nc1ccc(-c2cc3sc(C(C(=O)NCC(=O)NC4CC4)S(=O)(=O)c4ccc(F)cc4)nc3cc2F)cc1 (stereo not shown) [Example 478, methyl N-{4-[2-({[(cyclopropyl-carbamoyl)methyl]carbamoyl}(4-fluorobenzene-sulfonyl)methyl)-5-fluoro-1,3-benzothiazol-6-yl]phenyl}carbamate]
9 | COCCS(=O)(=O)C(C(=O)NCC(=O)NC1CC1)c1nc2cc(F)c(-c3ccc4c(c3)OCCN4C(=O)OCc3ccccc3)cc2s1 (stereo not shown) [Example 419, benzyl 7-[2-({[(cyclopropyl-carbamoyl)methyl]carbamoyl}(2-methoxyethane-sulfonyl)methyl)-5-fluoro-1,3-benzothiazol-6-yl}-3,4-dihydro-2H-1,4-benzoxazine-4-carboxylate]
47 | O=C(CNC(=O)C(c1nc2ccc(-c3cncnc3)cc2s1)S(=O)(=O)c1ccc(F)cc1)NC1CC1 (stereo not shown) [Example 460, N-[(cyclopropyl-carbamoyl)methyl]-2-(4-fluorobenzene-sulfonyl)-2-[6-(pyrimidin-5-yl)-1,3-benzothiazol-2-yl]acetamide]
10 | COCCS(=O)(=O)C(C(=O)NCC(=O)NC1CC1)c1nc2cc(-c3ccc(CNC(C)=O)cc3)ccc2s1 (stereo not shown) [Example 332, N-[(cyclopropyl-carbamoyl)methyl]-2-{5-[4-(acetamidomethyl)phenyl]-1,3-benzothiazol-2-yl}-2-(2-methoxyethane-sulfonyl)acetamide]
98 | COCCS(=O)(=O)C(C(=O)NCC(=O)NC1CC1)c1nc2ccc(-c3ccc4c(c3)C(=O)NC4)cc2s1 (stereo not shown) [Example 344, N-[(cyclopropyl-carbamoyl)methyl]-2-(2-methoxyethane-sulfonyl)-2-[6-(3-oxo-2,3-dihydro-1H-isoindol-5-yl)-1,3-benzothiazol-2-yl]acetamide]
9 | COCCNC(=O)c1cccc(-c2ccc3sc(C(C(=O)NCC(=O)NC4CC4)S(=O)(=O)CCOC)nc3c2)c1 (stereo not shown) [Example 400, 3-[2-({[(cyclopropyl-carbamoyl)methyl]carbamoyl}(2-methoxyethane-sulfonyl)methyl)-1,3-benzothiazol-5-yl]-N-(2-methoxyethyl) benzamide]
63 | COCCS(=O)(=O)C(C(=O)NCC(=O)NC1CC1)c1nc2cc(-c3cccc(C(=O)NCCO)c3)ccc2s1 (stereo not shown) [Example 399, 3-[2-({[(cyclopropyl-carbamoyl)methyl]carbamoyl}(2-methoxyethane-sulfonyl)methyl)-1,3-benzothiazol-5-yl]-N-(2-hydroxyethyl) benzamide]

Same assay, conditions: EL from conditioned media of HT-1080 cells; 30 min preincubation at 37° C.

IC50 [nM] | SMILES
4 | COCCNC(=O)c1ccc(-c2ccc3nc(C(C(=O)NCC(=O)NC4CC4)S(=O)(=O)N4CCOCC4)sc3c2)cc1 (stereo not shown) [Example 480, 4-[2-({[(Cyclopropylcarbamoyl)methyl]carbamoyl}(morpholine-4-sulfonyl)methyl)-1,3-benzothiazol-6-yl]-N-(2-methoxyethyl)benzamide]
